# What was measured:
# [1] = target: T1, human KCNMA1 (hum KCNMA1) (Homo sapiens, UniProt Q12791); assay: whole cell patch clamp, transfected HEK293 cells; transient facilitation then inhibition at […]; type: cell-based
# T1 construct: KCNMA1 variant 2/isoform b (NP_002238), expressed in HEK293 cells
# Drosophila Slo (Dm Slo) = target: T2, Drosophila Slo (Dm Slo) (Drosophila melanogaster, UniProt Q03720); assay: whole cell voltage clamp, CHO cells stably expressing Dm Slo, dose-response; type: cell-based
# T2 construct: alpha subunit, stably expressed in CHO cells
# T2 sequence (Q03720 whole entry): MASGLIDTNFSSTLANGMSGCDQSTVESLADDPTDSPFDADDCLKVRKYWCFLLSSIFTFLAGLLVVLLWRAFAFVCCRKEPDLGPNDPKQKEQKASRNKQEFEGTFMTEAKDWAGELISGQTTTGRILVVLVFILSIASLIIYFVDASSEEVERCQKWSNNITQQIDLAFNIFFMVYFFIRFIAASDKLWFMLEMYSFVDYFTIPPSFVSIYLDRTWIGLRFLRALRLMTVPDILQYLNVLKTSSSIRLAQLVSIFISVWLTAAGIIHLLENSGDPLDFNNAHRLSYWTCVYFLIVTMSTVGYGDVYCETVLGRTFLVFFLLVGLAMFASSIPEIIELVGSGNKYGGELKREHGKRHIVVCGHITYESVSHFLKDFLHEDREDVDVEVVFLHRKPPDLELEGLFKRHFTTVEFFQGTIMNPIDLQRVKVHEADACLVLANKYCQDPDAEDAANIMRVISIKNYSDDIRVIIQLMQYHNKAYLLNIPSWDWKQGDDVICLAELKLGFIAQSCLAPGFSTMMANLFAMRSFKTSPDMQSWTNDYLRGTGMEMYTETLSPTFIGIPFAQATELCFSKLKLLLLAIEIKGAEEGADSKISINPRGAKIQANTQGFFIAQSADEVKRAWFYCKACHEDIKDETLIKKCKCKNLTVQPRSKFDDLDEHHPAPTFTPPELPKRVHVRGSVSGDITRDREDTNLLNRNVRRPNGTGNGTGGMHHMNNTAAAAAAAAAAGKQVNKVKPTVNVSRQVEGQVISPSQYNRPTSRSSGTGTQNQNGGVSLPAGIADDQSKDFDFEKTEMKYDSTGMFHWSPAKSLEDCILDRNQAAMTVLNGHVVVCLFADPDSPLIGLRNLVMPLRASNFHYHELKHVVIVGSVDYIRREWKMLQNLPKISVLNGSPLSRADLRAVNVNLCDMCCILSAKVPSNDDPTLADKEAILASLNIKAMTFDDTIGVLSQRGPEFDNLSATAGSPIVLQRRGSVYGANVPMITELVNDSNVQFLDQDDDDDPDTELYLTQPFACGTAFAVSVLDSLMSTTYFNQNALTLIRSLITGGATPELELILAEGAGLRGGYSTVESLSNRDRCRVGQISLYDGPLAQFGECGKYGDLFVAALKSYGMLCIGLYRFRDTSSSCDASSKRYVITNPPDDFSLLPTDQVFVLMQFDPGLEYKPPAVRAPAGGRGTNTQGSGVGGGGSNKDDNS
# T1 sequence (Q12791 whole entry, canonical isoform): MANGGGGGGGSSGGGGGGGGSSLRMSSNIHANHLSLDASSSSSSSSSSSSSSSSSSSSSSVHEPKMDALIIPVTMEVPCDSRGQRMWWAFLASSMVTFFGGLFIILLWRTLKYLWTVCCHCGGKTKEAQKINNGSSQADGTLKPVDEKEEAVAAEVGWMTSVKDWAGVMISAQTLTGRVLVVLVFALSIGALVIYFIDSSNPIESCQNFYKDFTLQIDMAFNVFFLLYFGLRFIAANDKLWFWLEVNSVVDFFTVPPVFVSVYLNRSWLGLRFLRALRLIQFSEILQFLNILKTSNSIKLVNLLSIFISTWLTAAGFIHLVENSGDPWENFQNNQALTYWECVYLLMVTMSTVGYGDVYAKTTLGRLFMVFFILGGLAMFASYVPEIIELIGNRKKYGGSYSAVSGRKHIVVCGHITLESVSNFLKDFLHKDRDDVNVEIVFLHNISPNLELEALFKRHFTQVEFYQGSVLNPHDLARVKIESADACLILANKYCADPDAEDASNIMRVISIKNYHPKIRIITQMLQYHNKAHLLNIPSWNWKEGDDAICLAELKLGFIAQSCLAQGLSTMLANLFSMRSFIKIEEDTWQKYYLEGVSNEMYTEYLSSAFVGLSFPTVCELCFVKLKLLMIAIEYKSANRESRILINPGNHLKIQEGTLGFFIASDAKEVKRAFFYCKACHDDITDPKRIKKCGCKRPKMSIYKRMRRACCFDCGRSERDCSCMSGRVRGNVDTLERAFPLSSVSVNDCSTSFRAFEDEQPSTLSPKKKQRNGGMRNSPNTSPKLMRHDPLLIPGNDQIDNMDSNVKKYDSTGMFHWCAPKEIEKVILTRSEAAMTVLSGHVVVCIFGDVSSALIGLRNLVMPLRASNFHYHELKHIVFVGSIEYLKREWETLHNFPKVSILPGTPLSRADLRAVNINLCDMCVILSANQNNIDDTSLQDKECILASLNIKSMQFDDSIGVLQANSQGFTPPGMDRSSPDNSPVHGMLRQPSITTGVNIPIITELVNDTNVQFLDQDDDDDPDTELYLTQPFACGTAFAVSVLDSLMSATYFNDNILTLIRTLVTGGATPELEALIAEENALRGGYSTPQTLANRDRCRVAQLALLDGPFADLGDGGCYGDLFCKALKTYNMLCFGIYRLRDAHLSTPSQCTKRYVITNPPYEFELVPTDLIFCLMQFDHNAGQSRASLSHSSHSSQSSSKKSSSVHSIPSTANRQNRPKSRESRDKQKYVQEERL
Compound,"whole cell patch clamp, transfected HEK293 cells; transient facilitation then in [1]",IC50 (Drosophila Slo (Dm Slo)) [nM]
CC(C)C[C@H]1C(=O)O[C@H](Cc2ccc(N3CCOCC3)cc2)C(=O)N(C)[C@@H](CC(C)C)C(=O)O[C@H](C)C(=O)N(C)[C@@H](CC(C)C)C(=O)O[C@H](Cc2ccc(N3CCOCC3)cc2)C(=O)N(C)[C@@H](CC(C)C)C(=O)O[C@H](C)C(=O)N1C [emodepside],"In HEK293 cells expressing KCNMA1 emodepside elicited a biphasic, concentration-dependent effect on current amplitude",–
C=C(C)[C@H]1O[C@H]2CC[C@@]3(C)[C@@](O)(CC[C@H]4[C@@H]5OC(C)(C)[C@H]6C[C@@H]7C(=C)Cc8c(Cl)cc9[nH]c(c5c9c8[C@@]76O)[C@@]43C)[C@@]23O[C@H]3[C@H]1O [penitrem A],–,0.5
COc1ccc2c3c4n(c2c1)[C@H](C=C(C)C)OOC(C)(C)C[C@@H]4N1C(=O)[C@@H]2CCCN2C(=O)[C@]1(O)[C@H]3O [verruculogen],–,6.2
